Reference: patent US20230381330A1, “ENZYME-ACTIVATED SERUM EXTENDED HALF-LIFE THERAPEUTIC CONJUGATES” (Avacta Life Sciences Limited, priority 2020, published 2023)

Legend:
G-CSF = conditions: mouse, in vivo; cited from earlier work
[1] = system: J774A.1 mouse macrophage cell line cells; experiment: LDH release (pyroptosis) in J774A.1 cells with or without rhFAPα; format: cell-based; conditions: serial 10-fold dilutions, rhFAPα 25 nM, 24 hours, FIG. 17
Description: In further in vitro studies, several conjugates were tested for their ability to induce pyroptosis in J774 cells in the absence and presence of FAPα. Briefly, J774A.1 mouse macrophage cell line cells were cultured in triplicate wells with serial 10-fold dilutions of either VbP (data not shown) or one of the FAP-activated I-DASH inhibitors (Hu IgG1 Fc-6325, Hu IgG1-6325, MSA-6325, SQT-Gly V.2-6325, SQT-Gly CF-6325 or SQT-Gly CG-6325) in the presence or absence of rhFAPα at a final concentration of 25 nM for 24 hours. Each experiment included an untreated control. Following the incubation, the levels of lactate dehydrogenase (LDH, a marker of pyroptosis) released into culture supernatants were measured using the CytoTox 96 Non-radioactive Cytotoxicity Assay according to the manufacturer's instructions. The results are shown in FIG. 17 as fold-increase in LDH release.

mouse tumor model = experiment: EC50 / maximum tolerated dose studies in mice; format: in vivo; conditions: FIG. 4A/4B
Description: (§1) Half-maximal effective concentration (EC50) studies were undertaken to examine the difference between mice and rats administered talabostat alone (FIG. 4A) and mice and rats administered the therapeutic conjugates comprising talabostat (FIG. 4B). When talabostat is administered alone, the talabostat maximum tolerated dose (MTD) is about 3 mg/m^2 in a mouse tumor model and 0.18 mg/m^2 in rats. That is, the talabostat MTD is 1/17 the tumor model EC50 (FIG. 4A). […] Talabostat, as part of the therapeutic conjugate, can be administered to rats and mice at therapeutically effective doses.

rats = experiment: EC50 / maximum tolerated dose studies in rats; format: in vivo, rat; conditions: talabostat administered alone, FIG. 4A
Description: as §1

CC(C)[C@H](N)C(=O)N1CCC[C@H]1B(O)O [talabostat, Val-boroPro]
serum G-CSF response (G-CSF): large serum G-CSF response | differentiation of fold-increase in LDH release with vs without FAPα [1]: not the case | maximum tolerated dose (MTD) (mouse tumor model): about 3 mg/m^2 | maximum tolerated dose (MTD) (rats; rats): 0.18 mg/m^2 | MTD as fraction of the tumor model EC50 (rats): 1/17
